Key:
Type in all cases: in vivo
[1] = system: wheat (Triticum aestivum); test: Test A pre-/postemergence plant response
Procedure, shortened: (§1)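 Greenhouse pots of loam/sand received directed preemergence soil sprays or postemergence sprays (plants 2–10 cm, 1–2 leaf stage), compounds formulated in non-phytotoxic solvent with surfactant. Injury was rated visually versus untreated controls after about ten days on a 0 (no effect) to 100 (complete control) scale.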

[2] = system: giant foxtail (Setaria faberii); test: Test A pre-/postemergence plant response
Procedure, shortened: as §1

[3] = system: velvetleaf (Abutilon theophrasti); test: Test A pre-/postemergence plant response
Procedure, shortened: as §1

[4] = system: barnyardgrass (Echinochloa crus-galli); test: Test A pre-/postemergence plant response
Procedure, shortened: as §1

[5] = system: corn (Zea mays); test: Test A pre-/postemergence plant response
Procedure, shortened: as §1

[6] = system: large crabgrass (Digitaria sanguinalis); test: Test A pre-/postemergence plant response
Procedure, shortened: as §1

[7] = system: winter barley (Hordeum vulgare); test: Test B postemergence plant response; details: for Barley plant response rating (0 to 100 scale): 62 g ai/ha, 0 is no effect, 13 to 15 days
Procedure, shortened: (§2)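 Visual ratings from 0 (no effect) to 100 (complete control), made against controls 13–15 days after treatment, kept in a greenhouse. Compounds were applied postemergence to potted plants at the 1- to 4-leaf stage (2–18 cm).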

[8] = system: canarygrass (Phalaris minor); test: Test B postemergence plant response; details: for Canarygrass plant response rating (0 to 100 scale): 62 g ai/ha, 0 is no effect, 13 to 15 days
Procedure, shortened: as §2

[9] = system: chickweed (Stellaria media); test: Test B postemergence plant response; details: for Chickweed plant response rating (0 to 100 scale): 62 g ai/ha, 0 is no effect, 13 to 15 days
Procedure, shortened: as §2

[10] = system: windgrass (Apera spica-venti); test: Test B postemergence plant response; details: for Windgrass plant response rating (0 to 100 scale): 62 g ai/ha, postemergence, 0 is no effect, 100 is complete control, 13 to 15 days; for Plant response rating, Windgrass: Postemergence, scale 0 to 100 (0 no effect, 100 complete control)
Procedure, shortened: as §2

[11] = Postemergence, 125 g ai/ha, 0 to 100 scale where 0 is no effect and 100 is complete control
[12] = Postemergence, 500 g ai/ha, 0 to 100 scale, 0 = no effect, 100 = complete control, approx. ten days
[13] = Preemergence, 125 g ai/ha, 0 to 100 scale, 0 = no effect, 100 = complete control
[14] = Preemergence, 500 g ai/ha, visual injury, 0 to 100 scale (0 no effect, 100 complete control), approx. ten days
[15] = 31 g ai/ha, postemergence, scale 0 to 100, 0 is no effect, 100 is complete control
[16] = postemergence, 100 is complete control
[17] = Postemergence, 125 g ai/ha, scale 0 to 100 (0 no effect, 100 complete control)
[18] = Postemergence, 250 g ai/ha, scale 0 to 100 (0 no effect, 100 complete control)

| Structure (SMILES) | Plant response rating, Wheat [1, 11] | Plant response rating, Wheat [1, 12] | Plant response rating, Wheat [1, 13] | Plant response rating, Wheat [1, 14] | Plant response rating, Foxtail, Giant [2, 11] | Plant response rating, Foxtail, Giant [2, 12] | Plant response rating, Foxtail, Giant [2, 13] | Plant response rating, Foxtail, Giant [2, 14] | Plant response rating, Velvetleaf [3, 11] | Plant response rating, Velvetleaf [3, 12] | Plant response rating, Velvetleaf [3, 13] | Plant response rating, Velvetleaf [3, 14] | Plant response rating, Barnyardgrass [4, 11] | Plant response rating, Barnyardgrass [4, 12] | Plant response rating, Barnyardgrass [4, 13] | Plant response rating, Barnyardgrass [4, 14] | Plant response rating, Corn [5, 11] | Plant response rating, Corn [5, 12] | Plant response rating, Corn [5, 13] | Plant response rating, Corn [5, 14] | also measured |
| --- | --- | --- | --- | --- | --- | --- | --- | --- | --- | --- | --- | --- | --- | --- | --- | --- | --- | --- | --- | --- | --- |
| O=C1CCCC(O)=C1C(=O)c1cnc(-c2ccsc2)n(C2CCCCC2)c1=O [Compound 99] | 0 | 0 | 0 | 0 | 80 | 90 | 40 | 80 | 100 | 100 | 80 | 100 | 90 | 90 | 10 | 90 | 0 | 20 | 0 | 0 | Plant response rating, Crabgrass, Large [6, 11]: 90; Plant response rating, Crabgrass, Large [6, 12]: 100; Plant response rating, Crabgrass, Large [6, 13]: 60; Plant response rating, Crabgrass, Large [6, 14]: 100; Plant response rating, Barley [7, 15]: 5; Barley plant response rating (0 to 100 scale) [7, 16]: 5; Plant response rating, Barley [7, 17]: 10; Plant response rating, Barley [7, 18]: 30; Plant response rating, Canarygrass [8, 15]: 40; Canarygrass plant response rating (0 to 100 scale) [8, 16]: 60; Plant response rating, Canarygrass [8, 17]: 60; Plant response rating, Canarygrass [8, 18]: 70; Plant response rating, Chickweed [9, 15]: 80; Chickweed plant response rating (0 to 100 scale) [9, 16]: 98; Plant response rating, Chickweed [9, 17]: 98; Plant response rating, Chickweed [9, 18]: 98; Windgrass plant response rating (0 to 100 scale) [10]: 5; Plant response rating, Windgrass ([10]; 125 g ai/ha): 10; Plant response rating, Windgrass ([10]; 250 g ai/ha): 60 |
| CCCn1c(-c2cccc(OC)c2)ncc(C(=O)C2=C(O)CCCC2=O)c1=O [Compound 100] | 0 | 30 | 0 | 0 | 80 | 90 | 50 | 80 | 100 | 100 | 60 | 80 | 80 | 90 | 40 | 90 | 0 | 0 | 0 | 0 | Plant response rating, Crabgrass, Large [6, 11]: 80; Plant response rating, Crabgrass, Large [6, 12]: 90; Plant response rating, Crabgrass, Large [6, 13]: 80; Plant response rating, Crabgrass, Large [6, 14]: 90; Plant response rating, Barley [7, 15]: 5; Barley plant response rating (0 to 100 scale) [7, 16]: 20; Plant response rating, Barley [7, 17]: 30; Plant response rating, Barley [7, 18]: 50; Plant response rating, Canarygrass [8, 15]: 0; Canarygrass plant response rating (0 to 100 scale) [8, 16]: 5; Plant response rating, Canarygrass [8, 17]: 5; Plant response rating, Canarygrass [8, 18]: 10; Plant response rating, Chickweed [9, 15]: 75; Chickweed plant response rating (0 to 100 scale) [9, 16]: 75; Plant response rating, Chickweed [9, 17]: 95; Plant response rating, Chickweed [9, 18]: 100; Windgrass plant response rating (0 to 100 scale) [10]: 40; Plant response rating, Windgrass ([10]; 125 g ai/ha): 45 |
| COCCn1c(-c2cccs2)ncc(C(=O)C2=C(O)CCCC2=O)c1=O [Compound 108] | 0 | 0 | 0 | 0 | 60 | 90 | 30 | 40 | 100 | 100 | 80 | 90 | 90 | 90 | 30 | 90 | 0 | 40 | 0 | 0 | Plant response rating, Crabgrass, Large [6, 11]: 90; Plant response rating, Crabgrass, Large [6, 12]: 90; Plant response rating, Crabgrass, Large [6, 13]: 70; Plant response rating, Crabgrass, Large [6, 14]: 90; Plant response rating, Barley [7, 15]: 0; Barley plant response rating (0 to 100 scale) [7, 16]: 0; Plant response rating, Barley [7, 17]: 0; Plant response rating, Barley [7, 18]: 0; Plant response rating, Canarygrass [8, 15]: 0; Canarygrass plant response rating (0 to 100 scale) [8, 16]: 5; Plant response rating, Canarygrass [8, 17]: 5; Plant response rating, Canarygrass [8, 18]: 5; Plant response rating, Chickweed [9, 15]: 85; Chickweed plant response rating (0 to 100 scale) [9, 16]: 100; Plant response rating, Chickweed [9, 17]: 100; Plant response rating, Chickweed [9, 18]: 100; Windgrass plant response rating (0 to 100 scale) [10]: 10; Plant response rating, Windgrass ([10]; 125 g ai/ha): 30 |
| O=C1CCCC(O)=C1C(=O)c1cnc(-c2cccs2)n(CC2CCCO2)c1=O (stereo not drawn) [Compound 109] | 0 | 0 | 0 | 0 | 70 | 90 | 0 | 30 | 100 | 100 | 70 | 100 | 80 | 90 | 10 | 70 | 0 | 30 | 0 | 0 | Plant response rating, Crabgrass, Large [6, 11]: 90; Plant response rating, Crabgrass, Large [6, 12]: 100; Plant response rating, Crabgrass, Large [6, 13]: 40; Plant response rating, Crabgrass, Large [6, 14]: 90; Plant response rating, Barley [7, 15]: 0; Barley plant response rating (0 to 100 scale) [7, 16]: 0; Plant response rating, Barley [7, 17]: 5; Plant response rating, Barley [7, 18]: 5; Plant response rating, Canarygrass [8, 15]: 0; Canarygrass plant response rating (0 to 100 scale) [8, 16]: 0; Plant response rating, Canarygrass [8, 17]: 30; Plant response rating, Canarygrass [8, 18]: 45; Plant response rating, Chickweed [9, 15]: 90; Chickweed plant response rating (0 to 100 scale) [9, 16]: 98; Plant response rating, Chickweed [9, 17]: 98; Plant response rating, Chickweed [9, 18]: 100; Windgrass plant response rating (0 to 100 scale) [10]: 40; Plant response rating, Windgrass ([10]; 125 g ai/ha): 60 |

Source: patent US8952024B2, “Herbicidal pyrimidone derivatives” (E I du Pont de Nemours and Company, priority 2009, dated 2015)
